Data set [1] in a line: Drug concentration in SCID mouse plasma at 1 mg/kg, po measured at 24 hrs by LC-MS/MS analysis. The class given is ADME, organism-based.
The test system of data set [2] is VCaP. Description: Antiproliferative activity against human VCaP cells assessed as cell growth inhibition incubated for 4 days by celtiter-glo luminescent assay. To be noted: 96 h.
Data set [3] relates to VCaP. Description: Antitumor activity against human VCaP cells xenografted in SCID mouse assessed as tumor growth inhibition at 3 mg/kg, po administered for 4 week. The class given is functional. The settings on record: 672 h, time 4 weeks, read-out: TGI. A general note: Xenograft models place foreign cells or tissue in a host animal.
Data set [4] is described as follows: Volume of distribution at steady state in ICR mouse at 1 mg/kg, iv measured upto 24 hrs by LC/MS-MS analysis. The class given is ADME, organism-based. To be noted: in vivo.
The nature of data set [5]: Toxicity in male BALB/c mouse assessed as body weight loss at 30 mg/kg, po administered twice a week for 5 to 6 weeks. To be noted: in vivo, time 5-6 weeks. The class given is organism-based.
The nature of data set [6]: Toxicity in immune-competent Sprague-Dawley rat assessed as change in alanine aminotransferase level at 1 to 10 mg/kg, po administered twice a week for 5 weeks. Format: organism-based. The settings on record: in vivo, 840 h, dose 1-10 mg/kg.
For data set [7], the system named is CWR22R. Description: Antitumor activity against human 22Rv1 cells xenografted in SCID mouse assessed as reduction in BRD4 level in tumor at 1 to 3 mg/kg, po measured at 6 to 24 hrs by Western blotting analysis. The class given is functional, organism-based. The settings on record: dose 1-3 mg/kg, time 6-24 hrs.
Data set [8] in a line: Half life in Sprague-Dawley rat at 1 mg/kg, iv measured upto 24 hrs by LC/MS-MS analysis. Format: ADME, organism-based. To be noted: in vivo.
Data set [9] is described as follows: Toxicity in male BALB/c mouse assessed as effect on body weight loss at 3 to 10 mg/kg, po administered twice a week for 5 to 6 weeks. Format: organism-based. The settings on record: in vivo, dose lower 3 mg/kg, time lower 5 weeks, dose upper 10 mg/kg, time upper 6 weeks.
The nature of data set [10]: Metabolic stability in human liver microsome assessed as half life measured upto 60 mins in presence of NADPH by LC-MS/MS analysis. Format: ADME. To be noted: liver microsomes.
A short description of data set [11]: Cmax in ICR mouse at 3 mg/kg, po measured upto 24 hrs by LC/MS-MS analysis. The class given is ADME, organism-based. To be noted: in vivo.
Data set [12] is described as follows: Drug distribution in Sprague-Dawley rat spleen at 10 mg/kg, po measured at 24 hrs by LC-MS/MS analysis. The class given is ADME, organism-based. To be noted: read-out: Ct.
A short description of data set [13]: Toxicity in SCID mouse xenografted with human 22Rv1 cells assessed as loss of body weight at 0.3 to 3 mg/kg, po administered upto 3 weeks. To be noted: in vivo, 504 h, dose 0.3-3 mg/kg. Format: organism-based, CWR22R.
Data set [14] has as its target T1, Protein cereblon/histone acetyltransferase (Rattus norvegicus, UniProt Q56AP7+Q91XT0).
T1 sequence (Q56AP7 whole entry): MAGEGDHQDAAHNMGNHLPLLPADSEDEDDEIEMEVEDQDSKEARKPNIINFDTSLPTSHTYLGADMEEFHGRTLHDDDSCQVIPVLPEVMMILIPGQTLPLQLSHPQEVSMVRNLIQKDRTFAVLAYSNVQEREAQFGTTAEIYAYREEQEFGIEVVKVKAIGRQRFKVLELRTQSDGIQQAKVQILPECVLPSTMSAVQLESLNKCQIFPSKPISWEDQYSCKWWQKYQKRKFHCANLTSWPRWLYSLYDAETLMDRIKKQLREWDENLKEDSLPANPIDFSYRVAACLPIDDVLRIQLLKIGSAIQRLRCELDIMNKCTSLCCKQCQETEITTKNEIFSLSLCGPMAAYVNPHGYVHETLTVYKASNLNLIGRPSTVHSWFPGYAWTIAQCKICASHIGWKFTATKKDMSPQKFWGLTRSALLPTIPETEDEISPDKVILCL
T1 sequence (Q91XT0 whole entry): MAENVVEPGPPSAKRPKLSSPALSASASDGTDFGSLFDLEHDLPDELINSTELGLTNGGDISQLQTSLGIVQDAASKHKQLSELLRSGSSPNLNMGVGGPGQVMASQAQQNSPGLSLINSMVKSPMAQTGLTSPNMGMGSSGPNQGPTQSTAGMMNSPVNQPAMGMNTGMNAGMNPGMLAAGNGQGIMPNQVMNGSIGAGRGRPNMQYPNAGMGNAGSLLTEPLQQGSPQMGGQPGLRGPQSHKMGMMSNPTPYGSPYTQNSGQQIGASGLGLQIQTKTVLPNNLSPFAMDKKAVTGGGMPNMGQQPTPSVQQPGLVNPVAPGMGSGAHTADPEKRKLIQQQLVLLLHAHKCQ
The data set can be described thus: PROTAC activity at p300/CRBN in rat RG2 cells assessed as induction of p300 degradation. The class given is cell-based.

Data set [15] in a line: Drug concentration in SCID mouse tumor at 1 mg/kg, po measured at 1 hr by LC-MS/MS analysis. The class given is ADME, organism-based, Neoplasm. To be noted: read-out: Ct.
Data set [16] can be described thus: Drug distribution in SCID mouse spleen at 0.3 mg/kg, po measured at 1 hr by LC-MS/MS analysis. Format: ADME, organism-based. To be noted: read-out: Ct.
For data set [17], the target named is Cytochrome P450 2C19 (Homo sapiens, UniProt P33261). Description: Inhibition of CYP2C19 (unknown origin) preincubated with compound for 5 mins followed by NADPH addition and measured after 45 mins by LC-MS/MS analysis. Format: ADME.
The nature of data set [18]: Drug distribution in Sprague-Dawley rat kidney at 10 mg/kg, po measured at 1 hr by LC-MS/MS analysis. The class given is ADME, organism-based. The settings on record: read-out: Ct.
The test system of data set [19] is CWR22R. Description: Antitumor activity against human 22Rv1 cells xenografted in SCID mouse assessed as tumor growth inhibition at 1 mg/kg, po administered 5 times a week for 3 weeks. Format: functional. To be noted: 22Rv1, 504 h, read-out: TGI.
Data set [20] is described as follows: Drug distribution in Sprague-Dawley rat plasma at 10 mg/kg, po measured at 1 hr by LC-MS/MS analysis. The class given is ADME, organism-based.
Data set [21] can be described thus: Toxicity in immune-competent Sprague-Dawley rat assessed as change in basophil at 1 to 10 mg/kg, po administered twice a week for 5 weeks. Format: organism-based. To be noted: in vivo, 840 h, dose 1-10 mg/kg.
A short description of data set [22]: Toxicity in female BALB/c mouse assessed as effect on body weight loss at 3 to 10 mg/kg, po administered twice a week for 5 to 6 weeks. Format: organism-based. To be noted: in vivo, dose lower 3 mg/kg, time lower 5 weeks, dose upper 10 mg/kg, time upper 6 weeks.
The subject of data set [23] is VCaP. Description: Antitumor activity against human VCaP cells xenografted in SCID mouse assessed as tumor regression at 1 mg/kg, po administered 3 times a week for 4 weeks. The class given is functional.

Active and inactive are the calls of the source. No cut-off for these calls is given here.

Usually IC50 stands for the midpoint of a concentration-inhibition curve. A word on the Vdss: it is the apparent volume that relates the amount in the body to the concentration in plasma or blood. A high value points to extensive tissue distribution. What is called half-life is how long it takes for the measured level to halve. By Cmax is commonly meant the maximum level reached in the sampled fluid or tissue. For orientation: DC50 means the midpoint of the concentration-degradation curve.

Chain of Cytochrome P450 2C19 (P33261 whole entry): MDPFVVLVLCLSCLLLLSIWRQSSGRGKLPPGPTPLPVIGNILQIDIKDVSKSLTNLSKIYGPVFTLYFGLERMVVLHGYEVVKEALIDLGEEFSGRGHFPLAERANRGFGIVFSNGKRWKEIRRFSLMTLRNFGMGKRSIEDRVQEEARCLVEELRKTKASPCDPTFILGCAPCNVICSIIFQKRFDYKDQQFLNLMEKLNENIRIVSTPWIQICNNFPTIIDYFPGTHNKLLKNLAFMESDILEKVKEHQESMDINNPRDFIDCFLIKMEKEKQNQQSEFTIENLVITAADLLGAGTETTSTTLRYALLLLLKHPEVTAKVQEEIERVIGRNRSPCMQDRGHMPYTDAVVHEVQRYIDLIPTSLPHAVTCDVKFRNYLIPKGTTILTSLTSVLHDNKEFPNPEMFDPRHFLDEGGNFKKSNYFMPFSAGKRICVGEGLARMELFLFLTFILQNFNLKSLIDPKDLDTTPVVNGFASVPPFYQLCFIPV

Consider `CC(=O)N1CCc2c(c(N3CCCc4cc(-c5cnn(C)c5)c(C(F)F)cc43)nn2[C@H]2CC[C@H](CN3Cc4cc5c(cc4C3)C(=O)N(C3CCC(=O)NC3=O)C5=O)CC2)C1` (stereo partly drawn), for which the concentration at 24 h in data set [1] was 2.8 ng/mL; in [12], 12.6 ng/g. The IC50 in data set [2] is 4.6 nM; in [17], over 10000 nM. The inhibition in vivo at 3 mg/kg in data set [3] amounted to 57%. In addition, the Vdss in [4] is 4.9 L/kg. The Activity in data set [5] is listed as under 5%; in data set [6] it was “Non-Toxic”; in data set [9] it was “Non-Toxic”; in data set [13], “Non-Toxic”; in data set [21], “Non-Toxic”; in data set [22], “Non-Toxic”. The Activity in data set [23] worked out at 31%. Besides, the outcome in data set [7] was Active. Also, the figures for the half-life in data set [8] and in [10] were 1.9 h and 0.8 h, respectively. Moreover, the Cmax in [11] came to 725 ng/mL. Besides, the DC50 in data set [14] stood at 0.3 nM. Further, the concentration at 1 h was 30.8 ng/g in data set [15], 91 ng/mL in [16], 1170 ng/g in data set [18] and 321 ng/mL in [20]. The inhibition in vivo at 1 mg/kg in data set [19] was determined as 75%.
